Among the data in ChEMBL document CHEMBL3714742, “Pyrimido (4,5-b) indole derivatives” (2003) are IC50 and inhibition values, retold here.

The source made the active and inactive calls. The rule behind the calls is not given here.

The target in test [1] is T1, Dual specificity mitogen-activated protein kinase kinase 7 (Homo sapiens, UniProt O14733).
T1 sequence (O14733 whole entry): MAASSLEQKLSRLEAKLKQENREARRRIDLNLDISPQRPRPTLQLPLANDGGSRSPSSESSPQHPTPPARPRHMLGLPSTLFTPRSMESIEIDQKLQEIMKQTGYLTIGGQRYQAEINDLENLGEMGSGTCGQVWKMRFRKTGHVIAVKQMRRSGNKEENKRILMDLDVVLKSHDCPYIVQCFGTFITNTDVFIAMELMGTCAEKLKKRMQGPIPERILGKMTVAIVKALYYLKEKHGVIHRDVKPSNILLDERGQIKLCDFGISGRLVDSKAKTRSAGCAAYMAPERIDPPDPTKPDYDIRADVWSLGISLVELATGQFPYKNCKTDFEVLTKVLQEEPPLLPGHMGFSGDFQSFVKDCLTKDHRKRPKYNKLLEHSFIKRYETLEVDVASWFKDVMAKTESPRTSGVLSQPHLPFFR
The experiment in a line: Inhibition of GST-tagged human MKK7 expressed in Escherichia coli (BL21(DE3) pLysS) co-expressing human MEKK catalytic domain using biotinylated and GST-tagged rat GST-KN-SAPKalpha substrate incubated for 1 hr by time-resolved fluorescence based assay.

The test system of test [2] is Mus musculus. The test is described as follows: Inhibition of anti-CD3 antibody-induced IL2 production in Balb/c mouse dosed intravenously 5 mins before anti-CD3 antibody injection and measured 2 hrs post-challenge by ELISA. Format: functional, organism-based.
Test [3] relates to Mus musculus. The experiment in a line: Inhibition of anti-CD3 antibody-induced IL4 production in Balb/c mouse dosed intravenously 5 mins before anti-CD3 antibody injection and measured 2 hrs post-challenge by ELISA. Format: functional, organism-based.
Test [4] concerns Mus musculus. The experiment in a line: Inhibition of anti-CD3 antibody-induced IFNgamma production in Balb/c mouse dosed intravenously 5 mins before anti-CD3 antibody injection and measured 2 hrs post-challenge by ELISA. Format: functional, organism-based.

Turning to `Oc1ccc2[nH]c3ncnc(NC4CCCCCC4)c3c2c1`, in test [1], the IC50 is below 1 µM. In addition, the inhibition result in test [2], in test [3] and in test [4] was “Active” throughout.

Turning to `CC1CCCCN1c1ncnc2[nH]c3ccc(O)cc3c12` (stereo unspecified), the IC50 in test [1] is below 1 µM. Besides, the inhibition entry in test [2], in test [3] and in test [4] was “Active” in each case.

Compound `NC(=O)c1ccc2[nH]c3ncnc(NC4CCCCCC4)c3c2c1` returned an IC50 in test [1] below 1 µM. Besides, the inhibition entry in test [2], in test [3] and in test [4] was “Active” each time.

In the case of `COC(=O)c1ccc2[nH]c3nc(N)nc(N4CCCCC4)c3c2c1`, the IC50 in test [1] is below 1 µM. In addition, the inhibition result in test [2], in test [3] and in test [4] was “Active” throughout.

Take `COc1cc2[nH]c3nc(N)nc(N4CCCCC4)c3c2cc1OC`: half-maximal inhibition in test [1] (IC50) was put at 1 µM. The inhibition result in test [2], in test [3] and in test [4] was “Active” in each case.

Take `CN(Cc1ccccc1)c1nc(N)nc2[nH]c3ccc(O)cc3c12`: in test [1], the IC50 is below 1 µM. Further, the inhibition entry in test [2], in test [3] and in test [4] was “Active” each time.

`CNc1nc(C)nc2[nH]c3ccc(O)cc3c12` came in with an IC50 in test [1] of 1 µM. For the same compound, the inhibition result in test [2], in test [3] and in test [4] was “Active” throughout.

Compound `CC1CCCN(c2ncnc3[nH]c4ccc(C(N)=O)cc4c23)C1` (stereo unspecified) returned an IC50 in test [1] below 1 µM. The inhibition entry in test [2], in test [3] and in test [4] was “Active” throughout.

As to `Oc1ccc2[nH]c3ncnc(N4CCOCC4)c3c2c1`, in test [1], the IC50 is below 1 µM. The inhibition entry in test [2], in test [3] and in test [4] was “Active” each time.

Take `Nc1nc(NCCO)c2c(n1)[nH]c1ccc(O)cc12`: the IC50 in test [1] was below 1 µM. Moreover, the inhibition entry in test [2], in test [3] and in test [4] was “Active” each time.

The compound `NC(=O)c1ccc2[nH]c3nc(N)nc(N4CCCCC4)c3c2c1` showed an IC50 in test [1] below 1 µM. For the same compound, the inhibition entry in test [2], in test [3] and in test [4] was “Active” throughout.

As for `CC(C)(C)OC(=O)NC1CCCN(c2ncnc3[nH]c4ccc(C(N)=O)cc4c23)C1` (stereo unspecified), the IC50 in test [1] was below 1 µM. For the same compound, the inhibition entry in test [2], in test [3] and in test [4] was “Active” throughout.

In test [1], `Oc1ccc2[nH]c3ncnc(NC4CCCC4)c3c2c1` displayed an IC50 below 1 µM. The inhibition result in test [2], in test [3] and in test [4] was “Active” in each case.

`CC(C)N(C)c1nc(N)nc2[nH]c3ccc(O)cc3c12` displayed an IC50 in test [1] below 1 µM. The inhibition entry in test [2], in test [3] and in test [4] was “Active” throughout.

In turn, `Cc1nc(N2CCCC(O)C2)c2c(n1)[nH]c1ccc(O)cc12` (stereo unspecified) yielded an IC50 in test [1] below 1 µM. For the same compound, the inhibition entry in test [2], in test [3] and in test [4] was “Active” each time.

The compound `COC1CCN(c2ncnc3[nH]c4ccc(O)cc4c23)CC1` showed an IC50 in test [1] below 1 µM. The inhibition entry in test [2], in test [3] and in test [4] was “Active” in each case.

Take `CC(C)(C)OC(=O)N1CCC(Nc2ncnc3[nH]c4ccc(O)cc4c23)CC1`: the IC50 in test [1] was below 1 µM. The inhibition entry in test [2], in test [3] and in test [4] was “Active” throughout.

For `CN(c1ncnc2[nH]c3ccc(O)cc3c12)C1CCCCC1`, the IC50 in test [1] is below 1 µM. Moreover, the inhibition result in test [2], in test [3] and in test [4] was “Active” throughout.

`CCC1CCCCN1c1ncnc2[nH]c3ccc(C(N)=O)cc3c12` (stereo unspecified) showed an IC50 in test [1] below 1 µM. In addition, the inhibition result in test [2], in test [3] and in test [4] was “Active” each time.

The compound `CN(c1nc(N)nc2[nH]c3ccc(O)cc3c12)C1CCCCC1` had an IC50 in test [1] below 1 µM. The inhibition result in test [2], in test [3] and in test [4] was “Active” throughout.

On to `Nc1nc(N2CCC(O)CC2)c2c(n1)[nH]c1ccc(O)cc12`, for which the IC50 in test [1] is below 1 µM. For the same compound, the inhibition result in test [2], in test [3] and in test [4] was “Active” in each case.

As to `Oc1ccc2[nH]c3ncnc(NCCc4c[nH]cn4)c3c2c1`, the IC50 in test [1] is below 1 µM. Further, the inhibition result in test [2], in test [3] and in test [4] was “Active” in each case.

The compound `Oc1ccc2[nH]c3ncnc(N4CCC(O)C4)c3c2c1` (stereo unspecified) showed an IC50 in test [1] below 1 µM. For the same compound, the inhibition entry in test [2], in test [3] and in test [4] was “Active” each time.

In test [1], `NC(=O)c1ccc2[nH]c3ncnc(N4CCC(N)C4)c3c2c1` (stereo unspecified) registered an IC50 below 1 µM. The inhibition result in test [2], in test [3] and in test [4] was “Active” throughout.

For `Cc1nc(N2CCC(O)CC2)c2c(n1)[nH]c1ccc(O)cc12`, the IC50 in test [1] is below 1 µM. In addition, the inhibition result in test [2], in test [3] and in test [4] was “Active” in each case.

On to `O=C(O)C1CCN(c2ncnc3[nH]c4ccc(O)cc4c23)CC1`, for which the IC50 in test [1] was below 1 µM. For the same compound, the inhibition result in test [2], in test [3] and in test [4] was “Active” in each case.

For the compound `Oc1ccc2[nH]c3ncnc(NC4CCCCC4)c3c2c1`, in test [1], the IC50 was below 1 µM. The inhibition result in test [2], in test [3] and in test [4] was “Active” throughout.

On to `OCCC1CCCN(c2ncnc3[nH]c4ccc(O)cc4c23)C1` (stereo unspecified), for which the IC50 in test [1] was below 1 µM. Further, the inhibition result in test [2], in test [3] and in test [4] was “Active” in each case.

Take `Nc1nc(N2CCCCC2)c2c(n1)[nH]c1ccc(O)cc12`: in test [1], the IC50 is below 1 µM. Also, the inhibition result in test [2], in test [3] and in test [4] was “Active” each time.

In turn, `OCCCCN1CCN(c2ncnc3[nH]c4ccc(O)cc4c23)CC1` showed an IC50 in test [1] below 1 µM. Further, the inhibition result in test [2], in test [3] and in test [4] was “Active” in each case.

In turn, `NC(=O)c1ccc2[nH]c3ncnc(N(CCO)Cc4ccccc4)c3c2c1` came in with an IC50 in test [1] below 1 µM. The inhibition result in test [2], in test [3] and in test [4] was “Active” each time.

As for `CC1CCN(c2ncnc3[nH]c4ccc(C(N)=O)cc4c23)CC1`, the IC50 in test [1] was below 1 µM. Moreover, the inhibition result in test [2], in test [3] and in test [4] was “Active” throughout.

The compound `Nc1nc(NC2CCCC2)c2c(n1)[nH]c1ccc(O)cc12` yielded an IC50 in test [1] below 1 µM. The inhibition entry in test [2], in test [3] and in test [4] was “Active” throughout.

As for `Oc1ccc2[nH]c3ncnc(N4CCCCCC4)c3c2c1`, in test [1], the IC50 is below 1 µM. The inhibition result in test [2], in test [3] and in test [4] was “Active” in each case.

In turn, `Nc1nc(N2CCCCC2)c2c(n1)[nH]c1ccc(C(=O)O)cc12` had an IC50 in test [1] below 1 µM. For the same compound, the inhibition result in test [2], in test [3] and in test [4] was “Active” throughout.

Consider `NCCNc1ncnc2[nH]c3ccc(O)cc3c12`, for which, in test [1], the IC50 is below 1 µM. In addition, the inhibition entry in test [2], in test [3] and in test [4] was “Active” throughout.

`OCC1CCCN(c2ncnc3[nH]c4ccc(O)cc4c23)C1` (stereo unspecified) returned an IC50 in test [1] below 1 µM. The inhibition entry in test [2], in test [3] and in test [4] was “Active” throughout.

On to `Cc1nc(NCCO)c2c(n1)[nH]c1ccc(O)cc12`, for which, in test [1], the IC50 came out at 1 µM. Besides, the inhibition result in test [2], in test [3] and in test [4] was “Active” each time.

In the case of `NC(=O)c1ccc2[nH]c3ncnc(NC4CCCC4)c3c2c1`, in test [1], the IC50 is below 1 µM. For the same compound, the inhibition result in test [2], in test [3] and in test [4] was “Active” each time.
